Test results published in ChEMBL document CHEMBL4145489, “Synthesis and anti-tumor activity of EF24 analogues as IKKβ inhibitors” (Eur J Med Chem, 2018).
Activity calls are given as the source filed them. The calls are words filed in the database; no cut-off is given here.

Experiments:
[1] = biological target: T1, Inhibitor of nuclear factor kappa-B kinase subunit beta (Homo sapiens, UniProt O14920); test: Inhibition of IKKbeta (unknown origin) using FAM-P22 as substrate preincubated for 10 mins followed by substrate addition and measured after 1 hr by mobility shift assay
T1 sequence (O14920 whole entry): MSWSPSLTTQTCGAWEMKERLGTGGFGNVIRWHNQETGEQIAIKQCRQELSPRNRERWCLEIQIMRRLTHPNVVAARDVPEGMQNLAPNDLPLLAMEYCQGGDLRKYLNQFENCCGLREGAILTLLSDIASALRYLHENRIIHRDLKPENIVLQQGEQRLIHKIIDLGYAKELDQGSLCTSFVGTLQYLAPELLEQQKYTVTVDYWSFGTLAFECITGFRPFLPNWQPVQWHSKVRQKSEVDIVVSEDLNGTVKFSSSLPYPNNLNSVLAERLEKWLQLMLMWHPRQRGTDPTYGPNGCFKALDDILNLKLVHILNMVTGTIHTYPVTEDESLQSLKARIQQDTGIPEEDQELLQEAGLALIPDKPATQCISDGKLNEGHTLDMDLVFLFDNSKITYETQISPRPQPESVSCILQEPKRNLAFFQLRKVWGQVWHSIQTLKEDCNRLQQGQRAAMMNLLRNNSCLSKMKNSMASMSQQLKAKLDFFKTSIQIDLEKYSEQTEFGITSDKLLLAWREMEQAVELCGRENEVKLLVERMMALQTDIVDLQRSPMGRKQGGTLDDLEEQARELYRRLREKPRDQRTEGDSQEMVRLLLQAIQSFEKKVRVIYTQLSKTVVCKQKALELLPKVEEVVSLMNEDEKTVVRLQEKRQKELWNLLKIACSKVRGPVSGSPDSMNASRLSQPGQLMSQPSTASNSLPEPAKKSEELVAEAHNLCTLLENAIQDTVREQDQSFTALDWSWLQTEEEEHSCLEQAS

[2] = biological target: T2, Inhibitor of nuclear factor kappa-B kinase subunit beta (Homo sapiens) (UniProt O14920); test: Inhibition of IKKbeta in human MGC-803 cells assessed as TNF-alpha induced I-kappa-B-alpha degradation at 1 to 10 uM preincubated for 1 hr followed by TNF-alpha stimulation and measured after 10 mins by Western blot analysis; type: cell-based
T2 sequence (whole entry): T1 sequence (O14920 whole entry)

[3] = biological target: T3, Inhibitor of NF-kappa-B kinase alpha/beta (Homo sapiens) (UniProt O14920+O15111); test: Inhibition of TNF-alpha induced IKKalpha/beta phosphorylation in human SGC-7901 cells preincubated for 1 hr followed by TNF-alpha stimulation and measured after 10 mins by Western blot analysis; type: cell-based
[4] = biological target: T3, Inhibitor of NF-kappa-B kinase alpha/beta (Homo sapiens); test: Inhibition of TNF-alpha induced IKKalpha/beta phosphorylation in human MGC-803 cells preincubated for 1 hr followed by TNF-alpha stimulation and measured after 10 mins by Western blot analysis; type: cell-based
[5] = biological target: T2, Inhibitor of nuclear factor kappa-B kinase subunit beta (Homo sapiens); test: Inhibition of IKKbeta in human SGC-7901 cells assessed as TNF-alpha induced I-kappa-B-alpha degradation at 1 to 10 uM preincubated for 1 hr followed by TNF-alpha stimulation and measured after 10 mins by Western blot analysis; type: cell-based
[6] = biological target: T2, Inhibitor of nuclear factor kappa-B kinase subunit beta (Homo sapiens); test: Inhibition of IKKbeta in human SGC-7901 cells assessed as decrease in TNF-alpha induced p65 nuclear translocation at 10 uM preincubated for 1 hr followed by TNF-alpha stimulation and measured after 1 hr by DAPI staining-based fluorescence microscopic analysis; type: cell-based
HeLa 229 = test: Antiproliferative activity against human HeLa 229 cells after 72 hrs by MTT assay; type: functional, cell-based; conditions: HeLa 229, 72 h
A549 = test: Antiproliferative activity against human A549 cells after 72 hrs by MTT assay; type: functional, cell-based; conditions: A549, 72 h
SGC-7901 [7] = test: Antiproliferative activity against human SGC7901 cells after 72 hrs by MTT assay; type: functional, cell-based; conditions: SGC-7901, 72 h
MGC-803 [8] = test: Antiproliferative activity against human MGC803 cells after 72 hrs by MTT assay; type: functional, cell-based; conditions: MGC-803, 72 h
SGC-7901 [9] = test: Cell cycle arrest in human SGC7901 cells assessed as accumulation of cells at G2/M phase at 1 to 10 uM after 12 hrs by propidium iodide staining-based flow cytometric analysis; type: functional
SGC-7901 [10] = test: Cell cycle arrest in human SGC7901 cells assessed as decrease in cyclinB1 levels at 1 to 10 uM after 12 hrs by Western blot analysis; type: functional, cell-based
SGC-7901 [11] = test: Cell cycle arrest in human SGC7901 cells assessed as decrease in Cdc2 p34 levels after 12 hrs by Western blot analysis; type: functional, cell-based
MGC-803 [12] = test: Cell cycle arrest in human MGC803 cells assessed as accumulation of cells at G2/M phase at 1 to 10 uM after 12 hrs by propidium iodide staining-based flow cytometric analysis; type: functional
MGC-803 [13] = test: Cell cycle arrest in human MGC803 cells assessed as decrease in cyclinB1 levels at 1 to 10 uM after 12 hrs by Western blot analysis; type: functional, cell-based
MGC-803 [14] = test: Cell cycle arrest in human MGC803 cells assessed as decrease in Cdc2 p34 levels after 12 hrs by Western blot analysis; type: functional, cell-based
SGC-7901 [15] = test: Induction of apoptosis in human SGC7901 cells at 1 uM after 12 hrs by Annexin V-FITC staining-based FACS analysis (reference value: 1.56%); type: functional
SGC-7901 [16] = test: Induction of apoptosis in human SGC7901 cells at 5 uM after 12 hrs by Annexin V-FITC staining-based FACS analysis (reference value: 1.56%); type: functional
SGC-7901 [17] = test: Induction of apoptosis in human SGC7901 cells at 10 uM after 12 hrs by Annexin V-FITC staining-based FACS analysis (reference value: 1.56%); type: functional
MGC-803 [18] = test: Induction of apoptosis in human MGC803 cells at 1 uM after 12 hrs by Annexin V-FITC staining-based FACS analysis (reference value: 1.17%); type: functional
MGC-803 [19] = test: Induction of apoptosis in human MGC803 cells at 5 uM after 12 hrs by Annexin V-FITC staining-based FACS analysis (reference value: 1.17%); type: functional
MGC-803 [20] = test: Induction of apoptosis in human MGC803 cells at 10 uM after 12 hrs by Annexin V-FITC staining-based FACS analysis (reference value: 1.17%); type: functional
SGC-7901 [21] = test: Induction of apoptosis in human SGC7901 cells after 12 hrs by Annexin V-FITC staining-based FACS analysis; type: functional, cell-based
MGC-803 [22] = test: Induction of apoptosis in human MGC803 cells after 12 hrs by Annexin V-FITC staining-based FACS analysis; type: functional, cell-based
SGC-7901 [23] = test: Induction of apoptosis in human SGC7901 cells assessed as decrease in Bcl-2 levels at 1 to 10 uM after 12 hrs by Western blot analysis; type: functional, cell-based
SGC-7901 [24] = test: Induction of apoptosis in human SGC7901 cells assessed as increase in cleaved caspase-3 levels at 1 to 10 uM after 12 hrs by Western blot analysis; type: functional, cell-based
MGC-803 [25] = test: Induction of apoptosis in human MGC803 cells assessed as decrease in Bcl-2 levels at 1 to 10 uM after 12 hrs by Western blot analysis; type: functional, cell-based
MGC-803 [26] = test: Induction of apoptosis in human MGC803 cells assessed as increase in cleaved caspase-3 levels at 1 to 10 uM after 12 hrs by Western blot analysis; type: functional, cell-based
SGC-7901 [27] = test: Antitumor activity against human SGC7901 cells xenografted in athymic nude mouse assessed as tumor growth inhibition at 10 mg/kg, ip administered every other day for 22 days; type: functional, organism-based
Mus musculus [28] = test: Toxicity in athymic nude mouse xenografted with human SGC7901 cells assessed as body weight loss at 10 mg/kg, ip administered every other day for 22 days; type: organism-based; conditions: in vivo, 528 h
Mus musculus [29] = test: In vivo inhibition of IKKalpha/beta phosphorylation in tumor of athymic nude mouse xenografted with human SGC7901 cells at 10 mg/kg, ip administered every other day for 22 days by Western blot method; type: functional, organism-based
Mus musculus [30] = test: In vivo inhibition of IKKalpha/beta in tumor of athymic nude mouse xenografted with human SGC7901 cells assessed as I-kappa-B-alpha degradation at 10 mg/kg, ip administered every other day for 22 days by Western blot method; type: functional, organism-based
Mus musculus [31] = test: Downregulation of Bcl-2 levels in tumor of athymic nude mouse xenografted with human SGC7901 cells at 10 mg/kg, ip administered every other day for 22 days by Western blot method; type: functional, organism-based

Question: How did the IC50 [1] turn out when O=C1/C(=C/c2c(F)cccc2F)CNC/C1=C\c1c(F)cccc1F was run?
Answer: 14 µM

Question: Which inhibition [2] does the source give for O=C1/C(=C/c2ccccc2Br)CNC/C1=C\c1ccccc1Br here?
Answer: Active

Question: And the inhibition [3]?
Answer: Dose-dependent effect

Question: What about the inhibition [4] of the same compound?
Answer: Dose-dependent effect

Question: What about the inhibition [5] of the same compound?
Answer: Active

Question: What about the inhibition [6] of the same compound?
Answer: Active

Question: And the IC50 (HeLa 229)?
Answer: 1.8 µM

Question: What about the IC50 (A549) of the same compound?
Answer: 2.1 µM

Question: What about the IC50 (SGC-7901 [7]) of the same compound?
Answer: 1.2 µM

Question: What about the IC50 (MGC-803 [8]) of the same compound?
Answer: 1.8 µM

Question: What about the Activity (SGC-7901 [9]) of the same compound?
Answer: Active

Question: What about the Activity (SGC-7901 [10]) of the same compound?
Answer: Active

Question: And the Activity (SGC-7901 [11])?
Answer: Dose-dependent effect

Question: What about the Activity (MGC-803 [12]) of the same compound?
Answer: Active

Question: What about the Activity (MGC-803 [13]) of the same compound?
Answer: Active

Question: And the Activity (MGC-803 [14])?
Answer: Dose-dependent effect

Question: And the Activity (SGC-7901 [15])?
Answer: 8.95%

Question: And the Activity (SGC-7901 [16])?
Answer: 27.9%

Question: And the Activity (SGC-7901 [17])?
Answer: 45.3%

Question: And the Activity (MGC-803 [18])?
Answer: 9.88%

Question: What about the Activity (MGC-803 [19]) of the same compound?
Answer: 16.14%

Question: What about the Activity (MGC-803 [20]) of the same compound?
Answer: 32.1%

Question: And the Activity (SGC-7901 [21])?
Answer: Dose-dependent effect

Question: And the Activity (MGC-803 [22])?
Answer: Dose-dependent effect

Question: And the Activity (SGC-7901 [23])?
Answer: Active

Question: And the Activity (SGC-7901 [24])?
Answer: Active

Question: What about the Activity (MGC-803 [25]) of the same compound?
Answer: Active

Question: And the Activity (MGC-803 [26])?
Answer: Active

Question: What about the TGI (SGC-7901 [27]) of the same compound?
Answer: Active

Question: What about the Activity (Mus musculus [28]) of the same compound?
Answer: Non-Toxic

Question: What about the inhibition (Mus musculus [29]) of the same compound?
Answer: Active

Question: And the inhibition (Mus musculus [30])?
Answer: Active

Question: And the Activity (Mus musculus [31])?
Answer: Active

Question: Cc1ccc2nc(NCCN)c3ncc(C)n3c2c1.Cl was tested. Which IC50 (HeLa 229) did it give?
Answer: 9.4 µM

Question: And the IC50 (A549)?
Answer: 9.3 µM

Question: What about the IC50 (SGC-7901 [7]) of the same compound?
Answer: 8.3 µM

Question: What about the IC50 (MGC-803 [8]) of the same compound?
Answer: 14.2 µM

Question: What about the Activity (SGC-7901 [17]) of the same compound?
Answer: 19.49%

Question: What about the Activity (MGC-803 [20]) of the same compound?
Answer: 12.61%

Question: For O=C1/C(=C/c2ccccc2F)COC/C1=C\c1ccccc1F, which IC50 [1] is on record?
Answer: 19.6 µM

Question: Which results are given for O=C1/C(=C/c2ccccc2F)CNC/C1=C\c1ccccc1F?
Answer: IC50 (HeLa 229): 1.9 µM; IC50 (A549): 2.8 µM; IC50 (SGC-7901 [7]): 1 µM; IC50 (MGC-803 [8]): 2 µM
